Test results published in paper PMC11414412, “Design and synthesis new indole-based aromatase/iNOS inhibitors with apoptotic antiproliferative activity” (Frontiers in Chemistry, 2024).
Read-outs that look alike come from different tables or passages of the source.

Tests used:
Bcl-2 = Bcl-2 inhibition assay; format: cell-based, human; settings: lung (A-549) cancer cells, compound at IC50
Experimental: 4.2.8. Bcl-2 inhibition assay
Mix all reagents thoroughly without foaming before use. Wash the microwells twice with approximately 300 μL Wash Buffer per well with thorough aspiration of microwell contents between washes. Take caution not to scratch the surface of the microwells. After the last wash, empty the wells and tap microwell strips on absorbent pad or paper towel to remove excess Wash Buffer. Use the microwell strips immediately after washing or place upside down on a wet absorbent paper for not longer than 15 minutes. […] Add 100 μL of Sample […]
Diluent in duplicate to all standard wells and to the blank wells. Prepare standard (1:2 dilution) in duplicate ranging from 32 ng/mL to 0.5 ng/mL. Add 100 μL of Sample Diluent, in duplicate, to the blank wells. Add 80 μL of Sample Diluent, in duplicate, to the sample wells. Add 20 μL of each Sample, in duplicate, to the designated wells. Add 50 μL of diluted biotin-conjugate to all wells, including the blank wells. Cover with a plate cover and incubate at room temperature, on a microplate shaker at 100 rpm if available, for 2 hours. Remove plate cover and empty the wells.
Wash microwell strips 3 times as described in step 2. Add 100 μL of diluted Streptavidin-HRP to all wells, including the blank wells. Cover with a plate cover and incubate at room temperature, on a microplate shaker at 100 rpm if available, for 1 hour. Remove plate cover and empty the wells.
Wash microwell strips 3 times as described in step 2. Proceed to the next step. Pipette 100 μl of mixed TMB Substrate Solution to all wells, including the blanks. Incubate the microwell strips at room temperature (18° to 25°C) for about 15 minutes, if available on a rotator set at 100 rpm.
Avoid direct exposure to intense light. The point, at which the substrate reaction is stopped, is often determined by the ELISA reader. Many ELISA readers record absorbance only up to 2.0
O.D. Therefore, the color development within individual microwells must be watched by the person running the assay and the substrate reaction stopped before positive wells are no longer properly detectable. Stop the enzyme reaction by quickly pipetting 100 μL of Stop Solution into each well, including the blank wells. It is important that the Stop Solution is spread quickly and uniformly throughout the microwells to completely inactivate the enzyme. Results must be read immediately after the Stop Solution is added or within one hour i f the microwell strips are stored at 2 - 8°C in the dark. Read absorbance of each microwell on a spectrophotometer using 450 nm as the primary wavelength.

Bax = Bax activation assay; format: cell-based, human; settings: lung (A-549) cancer cells, compound at IC50
Experimental: Cells were obtained from American Type Culture Collection, cells were grown in RPMI 1640 containing 10% fetal bovine serum at 37°C, stimulated with the compounds to be tested for caspase8, and lysed with Cell Extraction Buffer. This lysate was diluted in Standard Diluent Buffer over the range of the assay and measured for human active caspase-8 content. […]
4.2.7. Bax activation assay
Bring all reagents, except the human Bax-α Standard, to room temperature for at least 30 minutes prior to opening. The human Bax-α Standard solution should not be left at room temperature for more than 10 minutes. All standards, controls and samples should be run in duplicate. Refer to the Assay Layout Sheet to determine the number of wells to be used and put any remaining wells with the desiccant back into the pouch and seal the ziploc. Store unused wells at 4 °C. Pipet 100 μL of Assay Buffer into the S0 (0 pg/mL standard) wells. Pipet 100 μL of Standards #1 through #6 into the appropriate wells. Pipet 100 μL of the Samples into the appropriate wells. Tap the plate gently to mix the contents. Seal the plate and incubate at room temperature on a plate shaker for 1 hour at ~500 rpm. Empty the contents of the wells and wash by adding 400 μL of wash solution to every well. Repeat the wash 4 more times for a total of 5 washes. After the final wash, empty or aspirate the wells and firmly tap the plate on a lint free paper towel to remove any remaining wash buffer.
Pipet 100 μL of yellow Antibody into each well, except the Blank. Seal the plate and incubate at room temperature on a plate shaker for 1 hour at ~500 rpm. Empty the contents of the wells and wash by adding 400 μL of wash solution to every well. Repeat the wash 4 more times for a total of 5 washes. After the final wash, empty or aspirate the wells and firmly tap the plate on a lint free paper towel to remove any remaining wash buffer. Add 100 μL of blue Conjugate to each well, except the Blank. Seal the plate and incubate at room temperature on a plate shaker for 30 minutes […]
Pipet 100 μL of Substrate Solution into each well. Incubate for 30 minutes at room temperature on a plate shaker at ~500 rpm. Pipet 100 μL Stop Solution to each well. Blank the plate reader against the Blank wells, read the optical density at 450 nm. Calculate the average net Optical Density (OD) bound for each standard and sample by subtracting the average Blank OD from the average OD for each standard and sample. Using linear graph paper, plot the Average Net OD for each standard versus Bax concentration in each standard. Approximate a straight line through the points.
The concentration of Bax in the unknowns can be determined by interpolation. […]

aromatase = settings: read-out: Aromatase inhibition IC50, cited from earlier work

CN[C@@H]1C[C@H]2O[C@@](C)([C@@H]1OC)n1c3ccccc3c3c4c(c5c6ccccc6n2c5c31)C(=O)NC4 [Staurosporine, reference compound]
Bcl-2 Conc (Bcl-2): 1.00 ng/mL | Bax Conc (Bax): 288 ± 2 pg/mL

COc1ccc(S(=O)(=O)NCCc2c(C(c3ccc(O)cc3)c3[nH]c4ccccc4c3CCNS(=O)(=O)c3ccc(OC)cc3)[nH]c3ccccc23)cc1 [compound VIII]
IC50 (aromatase; bis-/tris-indole sulfonamide series, ref Pingaew et al., 2018): 700 nM

N#Cc1c(-c2ccccc2)[nH]c2ccccc12 [compound VII]
IC50 (aromatase; 2-aryl indole series, ref Prior et al., 2017): 1610 nM

O=S(=O)(Cc1ccccc1)Nc1ccc2[nH]ccc2c1 [derivative IX]
IC50 (aromatase; indole aryl sulfonamide series, ref Fantacuzzi et al., 2020): 160 nM
